According to publication PMC2866172 (Journal of medicinal chemistry, 2010):
Like-named read-outs stand apart in the source and are kept apart here.

Assays:
[1] = mice, [14C]INH, 10 mg/kg s.c., cited from earlier work
[2] = humans, cited from earlier work
[3] = about 3 h after i.v. administration of 108.7 mg INH, [14C]INH tracer; cited from earlier work
[4] = PPB determination in pooled baboon plasma
[5] = patients with inflamed meninges, single 3 g oral dose; cited from earlier work
[6] = Brain PET imaging in anesthetized baboons
in vitro = settings: monkey, plasma
[7] = monkeys, 6 h after i.v. administration of [14C]RIF; cited from earlier work
[8] = patients, 150 mg oral dose, cited from earlier work
[9] = Torso PET imaging in anesthetized baboons; settings: for Calculated drug concentration in gallbladder / Calculated drug concentration in heart / Calculated drug concentration in kidney cortex / Calculated drug concentration in kidney medulla / Calculated drug concentration in liver / Calculated drug concentration in lung / Calculated drug concentration in plasma: calculated assuming 10 mg/kg dose, 17 kg baboon; for Concentration in gallbladder / Concentration in heart / Concentration in kidney cortex / Concentration in kidney medulla / Concentration in liver / Concentration in lung / Concentration in plasma: baboon, i.v.

For `NNC(=O)c1ccncc1` [INH, isoniazid], the “INH concentration in brain” value ([1]; 30 min) is given as 4.4 µg/g, the “INH concentration in brain” value ([1]; 60 min) is given as 3.2 µg/g and the “INH CSF concentration” value ([2]; 8.5 mg/kg oral dose, 2 h) is given as 1.9 µg/mL. The “INH CSF concentration” value ([2]; 108.7 mg oral dose, 1 h) was 0.31 µg/mL, the “INH concentration in surgically removed normal human lung” value [3] was 1.79 µg/g and the fraction unbound at 10 min ([4]; monkey, pooled plasma) was 0.946.
For `NC(=O)c1cnccn1` [PZA, pyrazinamide], the “CSF concentration of PZA” value [5] is given as 50 µg/mL, the Blood-brain barrier penetration ([6]; healthy baboons, i.v., TAC, AUC and image) is given as “excellent penetration” and the “PPB (value expressed as % of free fraction in plasma)” value ([4]; pooled baboon plasma, 10 min room temperature, % unbound) is given as 91.32%.
For `CO[C@H]1/C=C/O[C@@]2(C)Oc3c(C)c(O)c4c(O)c(c(/C=N/N5CCN(C)CC5)c(O)c4c3C2=O)NC(=O)/C(C)=C\C=C\[C@H](C)[C@H](O)[C@@H](C)[C@@H](O)[C@@H](C)[C@H](OC(C)=O)[C@@H]1C` [RIF, rifampicin], the fraction unbound at 10 min (in vitro) is given as 0.273, the “RIF concentration in heart” value [7] is given as 10.11 µg/g and the “RIF concentration in kidney” value [7] is given as 14.69 µg/g. The “RIF concentration in liver” value [7] was 60.41 µg/g, the “RIF concentration in lung” value [7] was 8.32 µg/g and the RIF bile concentration ([8]; 3–5 h) was “up to 538.5 µg/ml”. The “RIF concentration in the liver” value [8] was 22 to 35 µg/mL.
With `CO[C@H]1/C=C/O[C@@]2(C)Oc3c(C)c(O)c4cc(c(/C=N/N5CCN([11CH3])CC5)c(O)c4c3C2=O)NC(=O)/C(C)=C\C=C\C(C)[C@H](O)[C@@H](C)[C@@H](O)[C@@H](C)[C@H](OC(C)=O)[C@@H]1C` (stereo partly shown) [[^11C]RIF] the “Estimated concentration in whole brain, C30min” value ([6]; 30 min, estimated for 17 kg baboon, 10 mg/kg dose, signal assumed intact drug) was 1.09 µg/mL, the “Estimated concentration in whole brain, C60min” value ([6]; 60 min, estimated for 17 kg baboon, 10 mg/kg dose, signal assumed intact drug) was 0.912 µg/mL and the “Estimated concentration in whole brain, C90min” value ([6]; 90 min, estimated for 17 kg baboon, 10 mg/kg dose, signal assumed intact drug) was 1.21 µg/mL. For the same molecule, the “Concentration in whole brain, C30min” value ([6]; baboon, i.v., 30 min) was 0.000642 %ID/cc, the “Concentration in whole brain, C60min” value ([6]; baboon, i.v., 60 min) was 0.000536 %ID/cc and the “Concentration in whole brain, C90min” value ([6]; baboon, i.v., 90 min) was 0.00071 %ID/cc. For the same molecule, the “Calculated drug concentration in gallbladder” value ([9]; 15 min) was “(121.40) µg/ml”, the “Calculated drug concentration in heart” value ([9]; 15 min) was “(7.28) µg/ml” and the “Calculated drug concentration in kidney cortex” value ([9]; 15 min) was “(15.79) µg/ml”. For the same molecule, the “Calculated drug concentration in kidney medulla” value ([9]; 15 min) was “(36.39) µg/ml”, the “Calculated drug concentration in liver” value ([9]; 15 min) was “(258.98) µg/ml” and the “Calculated drug concentration in lung” value ([9]; 15 min) was “(5.03) µg/ml”. For the same molecule, the “Calculated drug concentration in plasma” value ([9]; 15 min) was “(2.81) µg/ml”, the “Calculated drug concentration in gallbladder” value ([9]; 30 min) was “(586.34) µg/ml” and the “Calculated drug concentration in heart” value ([9]; 30 min) was “(5.28) µg/ml”. The “Calculated drug concentration in kidney cortex” value ([9]; 30 min) was “(6.34) µg/ml”, the “Calculated drug concentration in kidney medulla” value ([9]; 30 min) was “(11.63) µg/ml” and the “Calculated drug concentration in liver” value ([9]; 30 min) was “(276.12) µg/ml”. For the same molecule, the “Calculated drug concentration in lung” value ([9]; 30 min) was “(2.83) µg/ml”, the “Calculated drug concentration in plasma” value ([9]; 30 min) was “(1.50) µg/ml” and the “Calculated drug concentration in gallbladder” value ([9]; 60 min) was “(983.24) µg/ml”. The “Calculated drug concentration in heart” value ([9]; 60 min) was “(1.93) µg/ml”, the “Calculated drug concentration in kidney cortex” value ([9]; 60 min) was “(0.43) µg/ml” and the “Calculated drug concentration in kidney medulla” value ([9]; 60 min) was “(6.73) µg/ml”. For the same molecule, the “Calculated drug concentration in liver” value ([9]; 60 min) was “(288.05) µg/ml”, the “Calculated drug concentration in lung” value ([9]; 60 min) was “(2.53) µg/ml” and the “Calculated drug concentration in plasma” value ([9]; 60 min) was “(1.14) µg/ml”. The “Calculated drug concentration in gallbladder” value ([9]; 90 min) was “(1009.99) µg/ml”, the “Calculated drug concentration in heart” value ([9]; 90 min) was “(6.80) µg/ml” and the “Calculated drug concentration in kidney cortex” value ([9]; 90 min) was “(8.19) µg/ml”. The “Calculated drug concentration in kidney medulla” value ([9]; 90 min) was “(9.44) µg/ml”, the “Calculated drug concentration in liver” value ([9]; 90 min) was “(299.73) µg/ml” and the “Calculated drug concentration in plasma” value ([9]; 90 min) was “(1.16) µg/ml”. For the same molecule, the Concentration in gallbladder ([9]; 15 min after administration) was 0.0714 %ID/cc, the Concentration in heart ([9]; 15 min after administration) was 0.0043 %ID/cc and the “Concentration in kidney cortex” value ([9]; 15 min after administration) was 0.0093 %ID/cc. For the same molecule, the “Concentration in kidney medulla” value ([9]; 15 min after administration) was 0.0214 %ID/cc, the Concentration in liver ([9]; 15 min after administration) was 0.1523 %ID/cc and the Concentration in lung ([9]; 15 min after administration) was 0.003 %ID/cc. It also gave a Concentration in plasma ([9]; 15 min after administration) of 0.00165 %ID/cc, a Concentration in gallbladder ([9]; 30 min after administration) of 0.3449 %ID/cc and a Concentration in heart ([9]; 30 min after administration) of 0.0031 %ID/cc. The “Concentration in kidney cortex” value ([9]; 30 min after administration) was 0.0037 %ID/cc, the “Concentration in kidney medulla” value ([9]; 30 min after administration) was 0.0068 %ID/cc and the Concentration in liver ([9]; 30 min after administration) was 0.1624 %ID/cc. It also gave a Concentration in lung ([9]; 30 min after administration) of 0.0017 %ID/cc, a Concentration in plasma ([9]; 30 min after administration) of 0.00088 %ID/cc and a Concentration in gallbladder ([9]; 60 min after administration) of 0.5784 %ID/cc. The Concentration in heart ([9]; 60 min after administration) was 0.0011 %ID/cc, the “Concentration in kidney cortex” value ([9]; 60 min after administration) was 0.0003 %ID/cc and the “Concentration in kidney medulla” value ([9]; 60 min after administration) was 0.004 %ID/cc. The Concentration in liver ([9]; 60 min after administration) was 0.1694 %ID/cc, the Concentration in lung ([9]; 60 min after administration) was 0.0015 %ID/cc and the Concentration in plasma ([9]; 60 min after administration) was 0.00067 %ID/cc. The Concentration in gallbladder ([9]; 90 min after administration) was 0.5941 %ID/cc, the Concentration in heart ([9]; 90 min after administration) was 0.004 %ID/cc and the “Concentration in kidney cortex” value ([9]; 90 min after administration) was 0.0048 %ID/cc. The “Concentration in kidney medulla” value ([9]; 90 min after administration) was 0.0056 %ID/cc, the Concentration in liver ([9]; 90 min after administration) was 0.1763 %ID/cc and the Concentration in plasma ([9]; 90 min after administration) was 0.00068 %ID/cc.
